Results as given in patent US8937167B2 (Washington University, priority 2009, dated 2015).
Where two headings read alike, the source gives them in different places.

Key:
[1] = type: in vitro ADME; conditions: for PAMPA (LogPe): pH 7.4
Procedure: Materials. The assay was carried out using Multiscreen PVDF 96-well plates (Millipore, Billerica, Mass.) using the company's Transporter Receiver Plate. The lipid (dioleyoylphosphotidylcholine (DOPC):Stearic Acid (80:20, wt %) in dodecane was obtained from Avanti Polar lipids (Alabaster, Ala.). Hank's Buffered Salt Solution (HBSS), pH 7.4 was obtained from MediaTech (Manassas, Va.).
Methods. Each of the test compounds was diluted to 2.5 mM in DMSO (Sigma, St Louis, Mo.) and further diluted prior to testing to 2.5 μM in HBSS, pH 7.4. The assay was performed using a Millipore 96-well Multiscreen-IP PAMPA plate, 5 μl of the lipid suspension was directly added to the PVDF membrane of the filter plate. Immediately following the addition of the lipid to the membrane, 200 μl of HBSS solution containing the test compound was added to the donor (upper) chamber. HBSS (300 μl) is also added to the receiver plate and the filter and receiver plates assembled and incubated overnight at room temperature in a moistened sealed bag to prevent evaporation. The concentration in the receiver plate as well as an equilibrium plate, that represents a theoretical, partition-free sample, was determined by HPLC-tandem mass spectrometry. Analysis of each compound was performed in triplicate.
Analysis. Analysis of both the acceptor and equilibrium samples were performed using an AB 3200 triple quadripole mass spectrometer linked to a Shimadzu DGU-20A HPLC with a Prevail C18 column (3 μm, 2.1×10 mm) with a flow rate of 0.35 ml/min. The mobile phase used was A: 0.1% Formic Acid in water, B: 0.1% Formic Acid in methanol. The elation gradient method is described in the table. Data acquisition and peak height determination was performed using Analyst v.1.4.2.
Calculations. The login of the effective permeability (LogPe) was calculated using the following equation
[formula] [formula] Where the drug concentration is the peak areas for the analyte and VD and VA is the volume of the donor and acceptor compartment respectively. The area is the surface area of the PVDF membrane (0.11 cm^2) and time is the incubation in seconds (64,800 sec). Each value is the mean of triplicates performed on the same day.

[2] = biological target: T1, FimH lectin domain (residues 1-158 of UPEC J96 FimH) (Escherichia coli, UniProt P08191); type: binding
T1 construct: made in house
Procedure: DSF measures the melting temperature change of protein when binding to small molecules. Melting temperature shifts are proportional to the free energy of binding, and melting temperatures increase even as ligand concentration exceeds the Kd.
FimH lectin domain (residues 1-158 of UPEC J96 FimH, without an affinity tag) was purified as described previously. Five micrograms FimH in 5 μl HBS were mixed with HBS to yield a final volume of 50 μl containing compound at a final concentration of 100 μM and a “5×” final concentration of SYPRO Orange (sold as a “5000×” stock in DMSO and mixed with HBS to a working stock of 50× immediately before use: Life Technologies Inc.; Grand Island, N.Y.). Compounds were diluted to 100 μM from stocks in DMSO and compared to matched control wells with FimH alone plus 0.2% DMSO. 50 μl reactions were placed in 96-well clear-bottom PCR plates and subjected to a melt curve from 20-90° C. in 0.5° C. increments of 15 seconds each followed by a fluorescence read of the “HEX” channel in a Bio-Rad CFX96 thermocycler (Bio-Rad, Hercules, Calif.). Melt curves were fitted to the Boltzmann equation to determine the melting temperature (Tm) (y=A2+(A1−A2)/(1+exp((x−x0)/dx)) where x0 is the Tm) using OriginPro 8 (OriginLab, Northampton Mass.).

FimH [3] = biological target: T2, FimH (Escherichia coli, UniProt Q1R2J4); conditions: for HAI Titer EC>50: Table 21;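 on all read-outs here: hemagglutination inhibition of guinea pig erythrocytes agglutinated by type 1 piliated uropathogenic E. coli via FimH mannose binding, quantified through serial dilutions of compound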
UTI89 biofilm = test: UTI89 type 1 dependent biofilm formation (inhibition/prevention) assay on PVC, crystal violet; type: cell-based, uropathogenic E. coli UTI89; conditions: Escherichia coli
Outline: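 Prevention: UTI89 grown in LB in PVC wells at 23° C with mannoside at varying concentrations for 48 h, then crystal violet stained and quantified. Disruption: 24 h UTI89 biofilm, mannoside added, grown 16 h more, then crystal violet.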

FimH lectin domain = biological target: T3, FimH lectin domain (Escherichia coli, UniProt P08191); test: biochemical; type: binding, E. coli
T3 construct: made by biotinylating FimH lectin domain^25 at a 1:1 molar ratio with NHS-PEO4-Biotin
Procedure: Samples or buffer (200 μL per well) were dispensed into 96-well microtiter plates (Greiner Bio-One, Monroe N.C.) and maintained at 30° C. with 1000 RPM shaking. Pre-manufactured pins for individual assays were made by biotinylating FimH lectin domain^25 at a 1:1 molar ratio with NHS-PEO4-Biotin (Thermo Fisher, Rockford Ill.), diluting it to 50 μg/ml in 20 mM HEPES pH 7.5, 150 mM NaCl (HBS), immobilizing it on high-binding streptavidin-coated biosensor tips (Super Streptavidin, ForteBio, Inc., Menlo Park, Calif.) for 10 minutes at 30° C., blocking the pins with 10 μg/ml biocytin for 2 minutes, washing in HBS for 1 hour, and rinsing in 15% sucrose in HBS. Pins were then air dried for 30 minutes and stored in their original packaging with a dessicant packet. Assays were performed by re-wetting premade pins with HBS for 15 minutes, then storing them in fresh HBS until use. […] Each experimental pin was referenced to a biocytin-blocked pin to control for instrument drift and a second biocytin-blocked pin that was passed through a duplicate experiment in the same 96-well plate to control for nonspecific binding of the compound to the pin. Kinetics data and affinity constants were generated automatically by the global fitting protocol in ForteBio Data Analysis version 6.3.

FimH [4] = biological target: T2, FimH; test: cell-based; conditions: read-out: HAI Titer EC90
[5] = read-out: Biofilm Prevention IC50
[6] = Table 17, Examples 30-36 numbering
[7] = Table 20, Examples 30-36 numbering

| Compound | PAMPA (LogPe) ([1]; 64800 sec, […]) | IC50 (UTI89 biofilm; [5]) [nM] | DSF Melting Temp. ([2]; Table 20, compound at 100 μM) [°C] | HAI Titer EC>90 (FimH [3]; [7]) [µM] | Kd (FimH lectin domain; Table 20, read-out: Octet Kd) [nM] | also measured |
| --- | --- | --- | --- | --- | --- | --- |
| CNC(=O)c1cc(C(=O)NC)cc(-c2ccc(OC3O[C@@H](CO)[C@@H](O)[C@H](O)[C@H]3O)c(C(F)(F)F)c2)c1 (stereo partly drawn) [Compound 1JWJ149, N1,N3-dimethyl-5-[3-(trifluoromethyl)-4-[(3R,4S,5S,6S)-3,4,5-trihydroxy-6-(hydroxymethyl)tetrahydropyran-2-yl]oxy-phenyl]benzene-1,3-dicarboxamide] | −6.27 | 43 |  |  |  | DSF Melting Temp. ([2]; Table 21): 76.15 C.; HAI Titer EC>90 (FimH [3]): 0.008 µM; HAI Titer EC>50 (FimH [3]; ZFH/JWJ codes): 0.008 µM; HAI Titer EC>90 (FimH [3]; Table 22, ZFH/JWJ codes): 0.008 µM |
| COC(=O)c1cccc(-c2ccc(OC3OC(CO)C(O)C(O)C3O)cc2)c1 (stereo not drawn) [Compound 2ZFH236] | −4.250 |  |  |  |  | HAI Titer EC>50 (FimH [3]): >2500 µM |
| CNC(=O)c1cccc(-c2ccc(O[C@H]3O[C@H](CO)[C@@H](O)[C@H](O)[C@@H]3O)cc2)c1 [Compound 2] |  | 1350 | 73.38 | 0.500 |  | Kd (FimH lectin domain): 0.1 nM; Kd, qualitative (FimH lectin domain): picomolar range; HAI Titer EC>90 (FimH [3]; [6]): 0.50 µM; IC50 (UTI89 biofilm; read-out: biofilm inhibition IC50): 1350 nM |
| OCC1OC(Oc2ccc(-c3ccc(O)cc3)cc2)C(O)C(O)C1O (stereo not drawn) [Compound 3ZFH26, 2-(hydroxymethyl)-6-[4-(4-hydroxyphenyl)phenoxy]tetrahydropyran-3,4,5-triol] | −8.890 |  |  |  |  |  |
| NC(=O)Nc1ccc(-c2ccc(OC3O[C@@H](CO)[C@@H](O)[C@H](O)[C@H]3O)cc2)cc1 (stereo partly drawn) [Compound 4ZFH218, [4-[4-[(3R,4S,5S,6S)-3,4,5-trihydroxy-6-(hydroxymethyl)tetrahydropyran-2-yl]oxyphenyl]phenyl]urea] | −4.35 |  |  |  |  | HAI Titer EC>90 (FimH [3]): 3.000 µM; HAI Titer EC>50 (FimH [3]; ZFH/JWJ codes): 3.000 µM; HAI Titer EC>90 (FimH [3]; Table 22, ZFH/JWJ codes): 3.000 µM |
| COC(=O)c1cccc(-c2ccc(OC3O[C@@H](CO)[C@@H](O)[C@H](O)[C@H]3O)c(C(F)(F)F)c2)c1 (stereo partly drawn) [Compound 4ZFH222, methyl 3-[3-(trifluoromethyl)-4-[(3R,4S,5S,6S)-3,4,5-trihydroxy-6-(hydroxymethyl)tetrahydropyran-2-yl]oxy-phenyl]benzoate] | −3.91 | 8170 |  |  |  | HAI Titer EC>90 (FimH [3]): 0.032 µM; HAI Titer EC>50 (FimH [3]; ZFH/JWJ codes): 0.032 µM; HAI Titer EC>90 (FimH [3]; Table 22, ZFH/JWJ codes): 0.032 µM |
| CNC(=O)c1cccc(-c2ccc(OC3O[C@@H](CO)[C@@H](O)[C@H](O)[C@H]3O)c(C)c2)c1 (stereo partly drawn) [Compound 4ZFH269, N-methyl-3-[3-methyl-4-[(3R,4S,5S,6S)-3,4,5-trihydroxy-6-(hydroxymethyl)tetrahydropyran-2-yl]oxy-phenyl]benzamide] | −3.89 | 159 |  |  |  | DSF Melting Temp. ([2]; Table 21): 74.46 C.; HAI Titer EC>90 (FimH [3]): 0.062 µM; HAI Titer EC>50 (FimH [3]; ZFH/JWJ codes): 0.06 µM; HAI Titer EC>90 (FimH [3]; Table 22, ZFH/JWJ codes): 0.062 µM |
| COC(=O)c1cccc(-c2ccc(O[C@H]3O[C@H](CO)[C@@H](O)[C@H](O)[C@@H]3O)c(Cl)c2)c1 [Compound 4b, Methyl 3-[3-chloro-4-[(2R,3S,4S,5S,6R)-3,4,5-trihydroxy-6-(hydroxymethyl)tetrahydropyran-2-yl]oxy-phenyl]benzoate] | −4.29 | 260 |  |  |  | EC90 (FimH [4]): 30 nM; HAI Titer EC>90 (FimH [3]; [6]): 0.03 µM; fold better HAI activity (FimH [3]; relative to matched pair 1, Examples 30-36 numbering): more than 30 fold |
| COC(=O)c1cccc(-c2ccc(O[C@H]3O[C@H](CO)[C@@H](O)[C@H](O)[C@@H]3O)c(C(F)(F)F)c2)c1 [Compound 4d, Methyl 3-[3-(trifluoromethyl)-4-[(2R,3S,4S,5S,6R)-3,4,5-trihydroxy-6-(hydroxymethyl)tetrahydropyran-2-yl]oxy-phenyl]benzoate] | −3.91 | 170 |  |  |  | EC90 (FimH [4]): 30 nM; HAI Titer EC>90 (FimH [3]; [6]): 0.03 µM |
| O=[N+]([O-])c1ccc(COC2OC(CO)C(O)C(O)C2O)cc1 (stereo not drawn) [Compound 5b] |  |  |  |  |  | LogPe ([1]; PAMPA): −3.89; PAMPA (LogPe) [1]: −3.89 |
| CNS(=O)(=O)c1cccc(-c2ccc(O[C@H]3O[C@H](CO)[C@@H](O)[C@H](O)[C@@H]3O)cc2)c1 [Compound 19] |  |  | 72.05 | 1.000 | 0.49 |  |
| CC(=O)Nc1cccc(-c2ccc(O[C@H]3O[C@H](CO)[C@@H](O)[C@H](O)[C@@H]3O)cc2)c1 [Compound 26] |  |  | 72.30 | 2.000 | 1.14 |  |
| O=C(O)c1cccc(-c2ccc(O[C@H]3O[C@H](CO)[C@@H](O)[C@H](O)[C@@H]3O)cc2)c1 [Compound 30] |  |  | 70.93 | 4.000 | 2.21 |  |
| OC[C@H]1O[C@H](Oc2ccc3ccccc3c2)[C@@H](O)[C@@H](O)[C@@H]1O [Compound 31] |  |  | 70.75 | 6.000 | 2.72 |  |
| COC(=O)c1cccc(O[C@H]2O[C@H](CO)[C@@H](O)[C@H](O)[C@@H]2O)c1 [Compound 32] |  |  | 70.75 | 6.000 | 2.72 |  |
